Laboratory results published in patent US20070128217A1 (priority 2003, published 2007).

Key:
[1] = tested on: rabbit serum obtained by immunizing a rabbit with the SARS-CoV strain Frankfurt 1; assay type: binding; set-up: Binding of a rabbit serum to linear peptides / Binding of a rabbit serum to looped peptides / Rabbit serum linear peptides / Rabbit serum looped peptides / Binding of a rabbit serum to linear peptides of protein N of SARS-CoV Urbani (Rabbit serum linear peptides) / Binding of a rabbit serum to looped/cyclic peptides of protein N of SARS-CoV Urbani (Rabbit serum looped peptides): unit not given here
[2] = tested on: antibodies in sera from SARS patients (sera 1a, 1b, 2, 6, 37, 62, London, SARS-yellow, SARS-green); assay type: binding, human; set-up: Binding of serum 6 to linear peptides of protein X1 of SARS-CoV Urbani / Binding of serum 37 to linear peptides of protein X1 of SARS-CoV Urbani / Binding of serum 6 to looped/cyclic peptide (PEPSCAN-ELISA) / Binding of serum 37 to looped/cyclic peptide (PEPSCAN-ELISA) / Binding of serum 37 to looped/cyclic peptides of protein X1 of SARS-CoV Urbani / Binding of serum 6 to linear peptides of protein X2 / Binding of serum 37 to linear peptides of protein X2 / Binding of serum 37 to looped/cyclic peptides of protein X2 of SARS-CoV Urbani / Binding of serum 6 to linear peptides of protein M of SARS-CoV Urbani / Binding of serum 37 to linear peptides of protein M of SARS-CoV Urbani / Binding of serum 6 to looped/cyclic peptides of protein M of SARS-CoV Urbani / Binding of serum 37 to looped/cyclic peptides of protein M of SARS-CoV Urbani / Binding of serum 6 to linear peptides of protein X3 of SARS-CoV Urbani / Binding of serum 37 to linear peptides of protein X3 of SARS-CoV Urbani / Binding of serum 37 to looped/cyclic peptides of protein X3 of SARS-CoV Urbani / Binding of serum 6 to linear peptides of protein X4 of SARS-CoV Urbani / Binding of serum 37 to linear peptides of protein X4 of SARS-CoV Urbani / Binding of serum 37 to looped/cyclic peptides of protein X4 of SARS-CoV Urbani / Binding of serum 6 to linear peptides of protein X5 of SARS-CoV Urbani / Binding of serum 37 to linear peptides of protein X5 of SARS-CoV Urbani / Binding of serum 37 to looped/cyclic peptides of protein X5 of SARS-CoV Urbani / Binding of serum 6 to linear peptides of protein N of SARS-CoV Urbani / Binding of serum 37 to linear peptides of protein N of SARS-CoV Urbani / Binding of serum 6 to linear peptide (PEPSCAN-ELISA) / Binding of serum 1a to looped/cyclic peptides of protein N of SARS-CoV Urbani / Binding of serum 1b to looped/cyclic peptides of protein N of SARS-CoV Urbani / Binding of serum 2 to looped/cyclic peptides of protein N of SARS-CoV Urbani / Binding of serum 6 to looped/cyclic peptides of protein N of SARS-CoV Urbani / Binding of serum 37 to looped/cyclic peptides of protein N of SARS-CoV Urbani / Binding of serum 62 to looped/cyclic peptides of protein N of SARS-CoV Urbani / Binding of serum London to looped/cyclic peptides of protein N of SARS-CoV Urbani / Binding of serum SARS-green to looped/cyclic peptides of protein N of SARS-CoV Urbani: unit not given here
[3] = tested on: control sera (pooled serum of ten healthy LUMC hospital workers; commercial negative donor pooled serum from the Dutch bloodbank); assay type: binding, human; set-up: Binding of Control serum LUMC to linear peptides / Binding of Control serum Blood-bank to linear peptides / Binding of Control serum LUMC to looped peptides / Binding of Control Serum Blood-Bank to Looped peptides / Binding of Control serum LUMC to linear peptides of the protein M of SARS-CoV Urbani / Binding of Control serum Blood-bank to linear peptides of the protein M of SARS-CoV Urbani / Binding of Control serum LUMC to looped peptides of the protein M of SARS-CoV Urbani / Binding of Control Serum Blood-Bank to Looped peptides of the protein M of SARS-CoV Urbani: unit not given here

Sequence | Rabbit serum linear peptides [1] | Rabbit serum looped peptides [1] | Binding of serum 1a to linear peptides of protein M of SARS-CoV Urbani [2] | Binding of serum 1a to looped/cyclic peptides of protein M of SARS-CoV Urbani [2] | Binding of serum 1b to linear peptides of protein M of SARS-CoV Urbani [2] | Binding of serum 1b to looped/cyclic peptides of protein M of SARS-CoV Urbani [2] | Binding of serum 2 to linear peptides of protein M of SARS-CoV Urbani [2] | Binding of serum 2 to looped/cyclic peptides of protein M of SARS-CoV Urbani [2] | Binding of serum 6 to linear peptides of protein M of SARS-CoV Urbani [2] | Binding of serum 6 to looped/cyclic peptides of protein M of SARS-CoV Urbani [2] | Binding of serum 37 to linear peptides of protein M of SARS-CoV Urbani [2] | Binding of serum 37 to looped/cyclic peptides of protein M of SARS-CoV Urbani [2] | Binding of serum 62 to linear peptides of protein M of SARS-CoV Urbani [2] | Binding of serum 62 to looped/cyclic peptides of protein M of SARS-CoV Urbani [2] | Binding of serum London to linear peptides of protein M of SARS-CoV Urbani [2] | Binding of serum London to looped/cyclic peptides of protein M of SARS-CoV Urbani [2] | Binding of serum SARS-green to linear peptides of protein M of SARS-CoV Urbani [2] | Binding of serum SARS-green to looped/cyclic peptides of protein M of SARS-CoV Urbani [2] | Binding of serum SARS-yellow to linear peptides of protein M of SARS-CoV Urbani [2] | Binding of serum SARS-yellow to looped/cyclic peptides of protein M of SARS-CoV Urbani [2] | also measured
AYNRYRIGNYKLNTD | 0.3 | 0.3 | 0.7 | 0.8 | 0.2 | 0.7 | 0.3 | 0.5 | 0.4 | 1.0 | 0.5 | 0.6 | 0.7 | 0.6 | 0.5 | 0.4 | 0.2 | 0.2 | 0.0 | 0.6 | Binding of Control Serum Blood-Bank to Looped peptides of the protein M of SARS-CoV Urbani [3]: 0.6; Binding of Control serum Blood-bank to linear peptides of the protein M of SARS-CoV Urbani [3]: 0.6; Binding of Control serum LUMC to linear peptides of the protein M of SARS-CoV Urbani [3]: 0.3; Binding of Control serum LUMC to looped peptides of the protein M of SARS-CoV Urbani [3]: 0.7
FRLFARTRSMWSFNP | 0.2 | 0.2 | 0.8 | 0.7 | 0.5 | 0.5 | 0.6 | 0.6 | 0.5 | 0.8 | 0.5 | 0.6 | 0.5 | 0.6 | 0.4 | 0.3 | 0.6 | 0.3 | 0.2 | 0.5 | Binding of Control Serum Blood-Bank to Looped peptides of the protein M of SARS-CoV Urbani [3]: 0.8; Binding of Control serum Blood-bank to linear peptides of the protein M of SARS-CoV Urbani [3]: 0.8; Binding of Control serum LUMC to linear peptides of the protein M of SARS-CoV Urbani [3]: 0.8; Binding of Control serum LUMC to looped peptides of the protein M of SARS-CoV Urbani [3]: 0.6
LFARTRSMWSFNPET | 0.1 | 0.3 | 0.8 | 0.7 | 0.7 | 0.5 | 0.5 | 0.6 | 0.6 | 0.5 | 0.5 | 0.7 | 0.5 | 0.6 | 0.4 | 0.2 | 0.5 | 0.3 | 0.2 | 0.7 | Binding of Control Serum Blood-Bank to Looped peptides of the protein M of SARS-CoV Urbani [3]: 0.6; Binding of Control serum Blood-bank to linear peptides of the protein M of SARS-CoV Urbani [3]: 0.7; Binding of Control serum LUMC to linear peptides of the protein M of SARS-CoV Urbani [3]: 0.8; Binding of Control serum LUMC to looped peptides of the protein M of SARS-CoV Urbani [3]: 0.6
